Reference: patent publication US9145398B2, “Methods of treating CXCR4-expressing cancers” (University of Louisville Research Foundation, Inc., priority 2010, dated 2015)

Legend:
hCXCR4-GFP [1] = assay: Chemotaxis assay, hCXCR4-GFP expressing 300.19 cells, CXCL12; assay type: cell-based, human; settings: 50 μM test compound
Protocol: Cells were suspended in chemotaxis buffer (RPMI 1640, 1% fetal bovine serum, 1 mM HEPES) at a concentration of 1×10^7 cells per ml. Cell chemotaxis was determined by examining the migration of the 300.19 cells in response to administration of 50 μM test compound plus an optimized concentration of CXCL12 using a chemotaxis assay that was previously described in Basu et al. (Basu et al., Critical role for polar residues in coupling leukotriene B4 binding to signal transduction in BLT1, J. Biol. Chem. (2007) Vol. 282, pp. 10005-17). 100 μL of 300.19 cells from the above cell suspension were placed in the upper chamber of a Transwell support (Corning Costar, Cambridge, Mass.) and were separated by a 5 micron filter from a bottom chamber containing 50 μM test compound plus the optimized concentration of CXCL12 in a final bottom chamber volume of 600 μl. After 3 h of incubation at 37° C. in 5% CO2, the upper chamber was removed and cells in the lower chamber were counted in a Bürker chamber. Cell counts for all samples were normalized to a CXCL12 plus DMSO control and results are reported using this normalized measure, referred to herein as the chemotaxis index. In some instances, the IC50 concentration (i.e., the concentration at which the chemotaxis index is reduced to 50% of the chemotaxis index of the CXCL12 plus DMSO control) of the test compounds was determined. All assays were performed a minimum of four times; error bars represent the standard deviation of the mean.

BLT1 = BLT1 (Homo sapiens, UniProt Q15722); assay: Intracellular calcium mobilization assay, cells expressing BLT1, LTB4; assay type: cell-based; settings: for IC50: LTB4-mediated; for normalized Δ fluorescence (BLT1, intracellular calcium mobilization): 50 μM test compound, LTB4
BLT1, sequence (Q15722 whole entry, species assumed): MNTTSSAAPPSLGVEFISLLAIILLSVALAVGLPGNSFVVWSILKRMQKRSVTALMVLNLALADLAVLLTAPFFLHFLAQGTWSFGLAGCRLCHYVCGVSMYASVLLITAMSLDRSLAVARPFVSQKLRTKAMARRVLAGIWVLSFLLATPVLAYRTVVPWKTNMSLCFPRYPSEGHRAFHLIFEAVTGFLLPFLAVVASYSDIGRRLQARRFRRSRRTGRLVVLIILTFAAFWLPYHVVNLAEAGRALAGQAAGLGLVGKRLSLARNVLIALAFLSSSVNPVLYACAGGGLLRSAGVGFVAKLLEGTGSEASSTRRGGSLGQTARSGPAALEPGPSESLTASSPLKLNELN
Protocol: (§1) Intracellular Calcium Mobilization Assay Method: The intracellular calcium mobilization assay used 300.19 cells which stably expressed hCXCR4-GFP, as described previously in Pello et al. (2008). Cells were loaded with INDO-I and then pretreated with the 50 μM of the test compound for 60 seconds prior to stimulation of intracellular calcium mobilization with an optimized concentration of CXCL12. […] The value Δ florescence is the difference between (a) the fluorescence ratio from cells before exposure to CXCL12 at its optimized concentration and (b) the fluorescence ratio from cells following stimulation with the optimized concentration of CXCL12. Decreases in Δ florescence correspond to decreases in intracellular calcium mobilization, and therefore, decreased signaling. As CXCL12 concentration was optimized for each test compound, results are presented as normalized Δ florescence which is Δ fluorescence divided by the fluorescence ratio of optimized CXCL12-only stimulation. In some instances, the IC50 concentration (concentration at which intracellular calcium mobilization is reduced to 50% of the Δ fluorescence of the CXCL12 plus DMSO control) of the test compounds was determined. All assays were performed a minimum of four times; error bars represent the standard deviation of the mean.
At 50 μM test compound concentrations in BLT1-expressing cells, I-44 (0.040) and I-46 (0.017) inhibited intracellular calcium mobilization.

300.19 cells = assay: Cytotoxicity assay, propidium iodide based flow cytometry; assay type: cell-based; settings: for cytotoxicity, percentage of cells staining positive for PI: 50 μM test compound
Protocol: Cytotoxicity Assay Method: To determine the potential for test compound cytotoxicity to influence cell intracellular calcium mobilization and chemotaxis, cell cytotoxicity was assessed using propidium iodide (PI) based flow cytometry. Propidium iodine is impermeable to intact cell membranes and thus its lack of intercalation into DNA (which increases PI fluorescence) is a positive indicator of cell viability. Cytotoxicity values are presented as percentage of cells staining positive for PI. Lower values of fluorescence indicate less cytotoxicity. All assays were performed a minimum of four times; error bars represent the standard deviation of the mean.

hCXCR4-GFP [2] = biological target: hCXCR4-GFP (Homo sapiens, UniProt P61073); assay: Intracellular calcium mobilization assay, hCXCR4-GFP expressing 300.19 cells, CXCL12; assay type: cell-based; parameters: IC50 of intracellular calcium mobilization, CXCR4; other: CXCL12-mediated; other: 50 μM test compound; normalized Δ fluorescence (CXCR4, intracellular calcium mobilization); other: 50 μM test compound, 60 seconds pretreatm; settings: for IC50: CXCL12-mediated, read-out: IC50 of intracellular calcium mobilization, CXCR4; for normalized Δ fluorescence (CXCR4, intracellular calcium mobilization): 50 μM test compound, 60 seconds pretreatment, optimized CXCL12 (AMD3100 concentration not given)
hCXCR4-GFP (Homo sapiens, UniProt P61073), sequence (P61073 whole entry): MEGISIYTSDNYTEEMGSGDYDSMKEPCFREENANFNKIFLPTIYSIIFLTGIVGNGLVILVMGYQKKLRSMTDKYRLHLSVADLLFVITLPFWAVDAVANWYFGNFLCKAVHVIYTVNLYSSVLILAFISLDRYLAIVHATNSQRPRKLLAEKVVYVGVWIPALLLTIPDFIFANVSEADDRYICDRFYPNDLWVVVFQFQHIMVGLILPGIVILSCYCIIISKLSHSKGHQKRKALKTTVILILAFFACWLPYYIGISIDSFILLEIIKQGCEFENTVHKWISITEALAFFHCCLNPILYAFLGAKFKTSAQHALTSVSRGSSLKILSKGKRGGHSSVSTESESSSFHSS
Protocol: as §1

hCXCR4-GFP [3] = assay: as above; assay type: cell-based, human; settings: for difference between CXCR4- and BLT1-mediated intracellular calcium mobilization: 50 μM test compound
Protocol: as §1

SMILES	difference between CXCR4- and BLT1-mediated chemotaxis (hCXCR4-GFP [1])	IC50 (BLT1)	cytotoxicity, percentage of cells staining positive for PI (300.19 cells)	IC50 (hCXCR4-GFP [2])	further results
CCOc1ccc(NCC(O)Cn2c3ccccc3c3ccccc32)cc1 (stereo not drawn) [Compound I-16, 1-carbazol-9-yl-3-(4-ethoxyphenyl)amino-propan-2-ol]	small differences	30 µM	67.9%	35 µM	cytotoxicity at 10 μM (300.19 cells): retained cytotoxicity
N=c1n(CCN2CCCCC2)c2ccccc2n1CC(O)COc1ccc(Cl)cc1 (stereo not drawn) [Compound I-5, 1-(4-chlorophenoxy)-3-[2-imino-3-[2-(1-piperidyl)ethyl]benzoimidazol-1-yl]-propan-2-ol]	small differences				
CCOc1ccc(NCc2nc3ccccc3n2CCOc2ccccc2)cc1 [Compound I-8, 4-ethoxy-N-((1-(2-phenoxyethyl)-1H-benzo[d]imidazol-2-yl)methyl)benzenamine]	small differences				
CCOc1ccc(NCC(O)Cn2c3ccccc3n3c(=O)cc(C)c(C#N)c23)cc1 (stereo not drawn) [Compound I-15, 5-[3-[(4-ethoxyphenyl)amino]-2-hydroxypropyl]-1,5-dihydro-3-methyl-1-oxo-pyrido[1,2-a]benzimidazole-4-carbonitrile]		30 µM		50 µM	fold greater inhibition of CXCR4-mediated than BLT1-mediated intracellular calcium mobilization (hCXCR4-GFP [3]; from normalized Δ fluorescence): ~3 fold; normalized Δ fluorescence (BLT1, intracellular calcium mobilization) (BLT1): 0.16; normalized Δ fluorescence (CXCR4, intracellular calcium mobilization) (hCXCR4-GFP [2]): 0.45
COc1ccccc1C(=O)OCCNc1nc2cc(C)cc(C)c2cc1C#N [Compound I-12, 2-[(3-cyano-5,7-dimethyl-2-quinolyl)amino]ethyl 2-methoxybenzoate]		2.5 µM		5 µM	difference between CXCR4- and BLT1-mediated intracellular calcium mobilization (hCXCR4-GFP [3]): no significant difference
COc1ccc(-c2cc(-c3ccccc3)cc3sc(/C(N)=N\C#N)c(N)c23)cc1 [Compound I-44, (E)-3-amino-N′-cyano-4-(4-methoxyphenyl)-6-phenylbenzo[b]thiophene-2-carboxamidine]			99.8%		normalized Δ fluorescence (BLT1, intracellular calcium mobilization) (BLT1): 0.040; normalized Δ fluorescence (CXCR4, intracellular calcium mobilization) (hCXCR4-GFP [2]): 0.29
C=C(C)C1CC=C(CN(CCCN(C)C)CCCN(C)C)CC1 (stereo not drawn) [Compound I-6, N-(3-dimethylaminopropyl)-N-[(4-isopropenyl-1-cyclohexenyl)methyl]-N′,N′-dimethyl-propane-1,3-diamine]	small differences				
COc1ccc(NCc2nc3ccccc3n2CCOc2ccccc2C)cc1 [Compound I-7, N-((1-(2-(o-tolyloxy)ethyl)-1H-benzo[d]imidazol-2-yl)methyl)-4-methoxybenzenamine]			53.4%		cytotoxicity at 10 μM (300.19 cells): retained cytotoxicity
CCC(=O)NCCNc1nc2cc(C)cc(C)c2cc1C#N [Compound I-13, N-[2-[(3-cyano-5,7-dimethyl-2-quinolyl)amino]ethyl]propanamide]		2.5 µM		5 µM	difference between CXCR4- and BLT1-mediated intracellular calcium mobilization (hCXCR4-GFP [3]): no significant difference
CCOC(=O)c1c(C)[nH]c(C(=O)COC(=O)c2c(-c3ccccc3)noc2C)c1C [Compound I-32, [2-(4-ethoxycarbonyl-3,5-dimethyl-1H-pyrrol-2-yl)-2-oxo-ethyl]5-methyl-3-phenyl-isoxazole-4-carboxylate]	small differences				
O=C(/C=C/c1ccccc1)NC(=S)Nc1cccc(-c2nc3ncccc3o2)c1 [Compound I-40, 1-(3-(oxazolo[4,5-b]pyridin-2-yl)phenyl)-3-((E)-3-phenylacryloyl)thiourea]			88.3%		
COC(=O)c1ccc(NC(=O)c2ccc3nc(-c4ccccn4)c(-c4ccccn4)nc3c2)cc1 [Compound I-39, methyl 4-(2,3-di(pyridin-2-yl)quinoxaline-6-carboxamido)benzoate]					normalized Δ fluorescence (CXCR4, intracellular calcium mobilization) (hCXCR4-GFP [2]): 0.31
